# Experimental data published in ChEMBL document CHEMBL1144307, “Design of selective phenylglycine amide tissue factor/factor VIIa inhibitors” (Bioorg Med Chem Lett, 2005).
# What was measured:
# [1] = target: Coagulation factor X (Homo sapiens, UniProt P00742); assay: The value of binding constant measured against coagulation factor X (factor Xa)
# [2] = target: Prothrombin (Homo sapiens, UniProt P00734); assay: The value of binding constant measured against human Thrombin
# [3] = target: Serine protease 1 (Homo sapiens, UniProt P07477); assay: The value of binding constant measured against human trypsin
# Serine protease 1, sequence (P07477 whole entry): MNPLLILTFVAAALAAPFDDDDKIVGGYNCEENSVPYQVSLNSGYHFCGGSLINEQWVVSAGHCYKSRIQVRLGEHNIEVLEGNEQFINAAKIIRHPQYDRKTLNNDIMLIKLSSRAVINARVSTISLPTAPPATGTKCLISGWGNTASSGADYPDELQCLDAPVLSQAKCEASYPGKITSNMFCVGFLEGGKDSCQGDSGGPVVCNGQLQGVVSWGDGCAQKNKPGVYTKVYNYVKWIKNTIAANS
# [4] = target: T1, Coagulation factor VII (Homo sapiens, UniProt P08709); assay: The value of binding constant measured against coagulation factor VII
# T1 sequence (P08709 whole entry): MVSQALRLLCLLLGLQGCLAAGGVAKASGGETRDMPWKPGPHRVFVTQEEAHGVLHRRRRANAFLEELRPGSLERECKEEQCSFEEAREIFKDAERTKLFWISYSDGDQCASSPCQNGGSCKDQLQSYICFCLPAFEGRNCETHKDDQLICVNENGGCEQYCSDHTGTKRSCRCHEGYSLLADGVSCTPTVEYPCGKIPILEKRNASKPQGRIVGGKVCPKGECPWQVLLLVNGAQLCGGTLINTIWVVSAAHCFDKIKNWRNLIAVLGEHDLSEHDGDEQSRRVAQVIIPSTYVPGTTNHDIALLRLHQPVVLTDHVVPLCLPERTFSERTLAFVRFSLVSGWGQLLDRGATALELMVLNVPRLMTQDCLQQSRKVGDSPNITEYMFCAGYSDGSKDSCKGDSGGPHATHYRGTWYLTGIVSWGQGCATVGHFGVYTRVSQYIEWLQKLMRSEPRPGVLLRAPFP
# Coagulation factor X, sequence (P00742 41-179 limits assumed): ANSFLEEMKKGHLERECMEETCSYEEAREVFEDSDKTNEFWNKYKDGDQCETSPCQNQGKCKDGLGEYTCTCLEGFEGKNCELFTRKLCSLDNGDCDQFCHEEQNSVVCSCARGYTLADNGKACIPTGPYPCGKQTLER
# Coagulation factor X, sequence (P00742 235-488 limits assumed): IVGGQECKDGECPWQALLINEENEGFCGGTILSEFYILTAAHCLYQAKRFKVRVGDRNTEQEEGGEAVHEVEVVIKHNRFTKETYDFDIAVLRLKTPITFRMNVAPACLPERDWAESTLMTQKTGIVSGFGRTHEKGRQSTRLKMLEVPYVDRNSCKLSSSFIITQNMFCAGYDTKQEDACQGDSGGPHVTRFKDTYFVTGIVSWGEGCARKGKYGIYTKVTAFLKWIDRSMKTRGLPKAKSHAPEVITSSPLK
Ki [1] [nM],Ki [2] [nM],Ki [3] [nM],Ki [4] [nM],Structure (SMILES)
12400,540,50,,COc1cc([C@@H](Nc2ccc(C(=N)N)cc2)C(=O)N[C@H](C(=O)O)c2ccccc2)c(S(=O)(=O)c2ccccc2)cc1OCc1ccccc1
1200,270,580,1000,COc1cc(CNc2ccc(C(=N)N)cc2)ccc1OCc1ccccc1
19000,570,2000,40,CCOc1ccc(C(Nc2ccc(C(=N)N)cc2)C(=O)NCc2ccccc2)cc1OCC (stereo unspecified)
8000,35,40,,COc1cc([C@@H](Nc2ccc(C(=N)N)cc2)C(=O)N[C@H](C(=O)O)c2ccccc2)ccc1OCc1ccccc1
19000,6400,80,7,COc1cc([C@@H](Nc2ccc(C(=N)N)cc2)C(=O)N[C@H](C(=O)O)c2ccccc2)c(C(=O)Cc2ccccc2)cc1OCc1ccccc1
4500,48,1100,130,CCOc1cc(C(Nc2ccc(C(=N)N)cc2)C(=O)NCc2ccccc2)ccc1OCc1ccccc1 (stereo unspecified)
5300,43,210,220,COc1cc(C(Nc2ccc(C(=N)N)cc2)C(=O)NCc2ccccc2)ccc1OCc1ccccc1 (stereo unspecified)
26000,1400,400,380,COc1cc(CNc2ccc(C(=N)N)cc2)c(NS(C)(=O)=O)cc1OCc1ccccc1
30000,460,1700,350,COc1ccc(C(Nc2ccc(C(=N)N)cc2)C(=O)NCc2ccccc2)cc1OC (stereo unspecified)
> 74000,1700,420,160,COc1cc(C(Nc2ccc(C(=N)N)cc2)C(=O)NCc2ccccc2)c(S(=O)(=O)c2ccccc2)cc1OCc1ccccc1 (stereo unspecified)
39000,4500,2000,,CCOc1ccc(CNc2ccc(C(=N)N)cc2)cc1OCC
